Broadly, the solubility (mole fraction) is solubility expressed as the solute's share of all molecules.

The conditions of the series: in water.

For `O=C(O)CC(O)C(=O)O` (stereo unspecified), the solubility (mole fraction) runs as follows: (278.15 K) 0.112; (283.15 K) 0.121; (288.15 K) 0.132; (293.15 K) 0.145; (298.15 K) 0.158; (303.15 K) 0.168. Moreover, the solubility (mole fraction) by setting is: (308.15 K) 0.181; (313.15 K) 0.198; (318.65 K) 0.209; (323.15 K) 0.231; (328.15 K) 0.248; (333.15 K) 0.269. For the setting “338.15 K”, this compound showed a solubility (mole fraction) of 0.294.

In the case of `O=C(O)/C=C\C(=O)O`, the solubility (mole fraction) runs as follows: (278.15 K) 0.0673; (283.15 K) 0.0779; (288.15 K) 0.0869; (293.15 K) 0.0969; (298.15 K) 0.111; (303.15 K) 0.124. The solubility (mole fraction) is 0.142 (308.15 K); 0.154 (313.15 K); 0.174 (318.65 K); 0.184 (323.15 K); 0.199 (328.15 K); 0.218 (333.15 K). Also, the solubility (mole fraction) (338.15 K) was found to be 0.232.

Values taken from BigSolDB 2.1.
